Measured values: ChEMBL document CHEMBL3856234, “Development of Multifunctional Pyrimidinylthiourea Derivatives as Potential Anti-Alzheimer Agents” (J Med Chem, 2016)
≈ marks a conversion by molar mass, not a printed value.

Test system: not listed separately
Assay: Cytotoxicity against human SH-SY5Y cells assessed as reduction in cell viability at 10 and 30 uM measured after 24 hrs by MTT assay
Assay type: toxicity, cell-based
Details: not given; call rule not given here
For `CCNC(=S)Nc1cc(-n2cnc(CN3CCCC3)c2)ncn1`, the Activity was “Non-Toxic”. With `C/C=C1\[C@H]2C=C(C)C[C@]1(N)c1ccc(=O)[nH]c1C2` [HUPERZINE A] the Activity was “Non-Toxic”.

Test system: not listed separately
Assay: Metal chelating activity assessed as Fe2+-compound complex formation at 40 uM measured after 1 hr by UV-vis spectroscopic analysis
Assay type: physicochemical
Details: not given
With `CCNC(=S)Nc1cc(-n2cnc(CN3CCCC3)c2)ncn1` the Activity was “Active”.

Test system: not listed separately
Assay: Permeability of the compound in PBS/EtOH (7:3) buffer measured after 10 hrs by PAMPA assay
Assay type: ADME
Details: read-out: Peff
`CNCCCN1c2ccccc2CCc2ccccc21` [DESIPRAMINE] showed a Papp at 10 h of 16.6 ×10⁻⁶ cm/s. `CCNC(=S)Nc1cc(-n2cnc(CN(C)Cc3ccccc3)c2)ncn1` gave a Papp at 10 h of 8.8 ×10⁻⁶ cm/s. With `CCNC(=S)Nc1cc(-n2cnc(CN3CCCC3)c2)ncn1` the Papp at 10 h was 1.15 ×10⁻⁶ cm/s.

Test system: not listed separately
Assay: Metal chelating activity assessed as Zn2+-compound complex formation at 40 uM measured after 1 hr by UV-vis spectroscopic analysis
Assay type: physicochemical
Details: not given
In the case of `CCNC(=S)Nc1cc(-n2cnc(CN3CCCC3)c2)ncn1`, the Activity is reported as “Active”.

Test system: not listed separately
Assay: Metal chelating activity assessed as Fe3+-compound complex formation at 40 uM measured after 1 hr by UV-vis spectroscopic analysis
Assay type: physicochemical
Details: not given
With `CCNC(=S)Nc1cc(-n2cnc(CN3CCCC3)c2)ncn1` the Activity was “Active”.

Test system: not listed separately
Assay: Cytotoxicity against human SH-SY5Y cells assessed as reduction in cell viability at 100 uM measured after 24 hrs by MTT assay
Assay type: toxicity, cell-based
Details: not given
With `CCNC(=S)Nc1cc(-n2cnc(CN3CCCC3)c2)ncn1` the Activity was “Toxic”. For `C/C=C1\[C@H]2C=C(C)C[C@]1(N)c1ccc(=O)[nH]c1C2` [HUPERZINE A], the Activity was “Non-Toxic”.

Test system: not listed separately
Assay: Solubility of the compound in water measured after 24 hrs by HPLC analysis
Assay type: physicochemical
Details: not given
For `CCNC(=S)Nc1cc(-n2cnc(CN(C)Cc3ccccc3)c2)ncn1`, the solubility at 24 h was 58 µg/mL (≈ 152 µM). With `CCNC(=S)Nc1cc(-n2cnc(CN3CCCC3)c2)ncn1.Cl` the solubility at 24 h was 19500 µg/mL. In the case of `CCNC(=S)Nc1cc(-n2cnc(CN3CCCC3)c2)ncn1`, the solubility at 24 h is reported as 340 µg/mL (≈ 1030 µM). With `CCNC(=S)Nc1cc(-n2cnc(CN(C)Cc3ccccc3)c2)ncn1.Cl` the solubility at 24 h was 2740 µg/mL.

Species on record: Rattus norvegicus
Assay: Selectivity index, ratio of IC50 for rat serum BuChE to IC50 for rat cortex AChE
Details: not given
`C/C=C1\[C@H]2C=C(C)C[C@]1(N)c1ccc(=O)[nH]c1C2` [HUPERZINE A] showed a Ratio IC50 of 444.

Test system: not listed separately
Assay: Metal chelating activity assessed as Cu2+-compound complex formation at 40 uM measured after 1 hr by UV-vis spectroscopic analysis
Assay type: physicochemical
Details: not given
In the case of `CCNC(=S)Nc1cc(-n2cnc(CN3CCCC3)c2)ncn1`, the Activity is reported as “Active”.

Biological target: T1, Acetylcholinesterase (Rattus norvegicus) (UniProt P37136)
T1 sequence (whole entry): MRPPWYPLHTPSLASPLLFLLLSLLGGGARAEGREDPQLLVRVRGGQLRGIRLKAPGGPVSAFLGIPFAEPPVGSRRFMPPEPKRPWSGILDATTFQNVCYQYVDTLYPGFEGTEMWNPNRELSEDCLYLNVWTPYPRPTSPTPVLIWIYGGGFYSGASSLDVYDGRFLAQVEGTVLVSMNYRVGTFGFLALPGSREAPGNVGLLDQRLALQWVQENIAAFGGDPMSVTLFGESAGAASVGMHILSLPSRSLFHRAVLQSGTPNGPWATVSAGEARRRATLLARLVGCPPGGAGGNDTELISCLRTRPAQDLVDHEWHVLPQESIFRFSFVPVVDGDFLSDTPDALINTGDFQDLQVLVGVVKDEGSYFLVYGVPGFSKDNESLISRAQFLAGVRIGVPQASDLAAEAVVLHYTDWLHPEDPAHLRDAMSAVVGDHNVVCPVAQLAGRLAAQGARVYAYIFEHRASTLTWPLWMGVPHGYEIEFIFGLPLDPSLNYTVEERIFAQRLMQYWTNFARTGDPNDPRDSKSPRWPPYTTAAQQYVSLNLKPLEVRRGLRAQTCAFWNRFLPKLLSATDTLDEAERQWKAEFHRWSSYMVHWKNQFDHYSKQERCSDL
Assay: Inhibition of rat cortex AChE at 40 uM using acetylthiocholine iodide as substrate measured after 20 mins by Ellman's method relative to control
Details: not given
Molecule `CCCCNC(=S)Nc1cc(-n2cccn2)ncn1` has an inhibition of 66.6%. `CCNC(=O)Nc1cc(-n2cccn2)ncn1` gave an inhibition of 22.1%. Molecule `CC(C)NC(=S)Nc1cc(-n2cccn2)ncn1` has an inhibition of 36.2%. `CCNC(=S)Nc1ncnc(-n2ccnc2)c1C` showed an inhibition of 45.9%. Molecule `CCNC(=S)Nc1nc2c(c(-n3ccnc3)n1)CCC2` has an inhibition of 24.4%. Molecule `CCOc1cc(-n2cccn2)ncn1` has an inhibition of 11.8%. `CCNC(=S)Nc1cc(-n2cccn2)ncn1` showed an inhibition of 77.3%. In the case of `CCNC(=S)Nc1cc(-n2ccnc2)ncn1`, the inhibition is reported as 72.8%. With `CCNC(=S)Nc1cc(-n2ccnc2)nc(C)n1` the inhibition was 71.4%. Molecule `CCNC(=S)Nc1cc(N2CCN(C)CC2)ncn1` has an inhibition of 70.1%.

Test system: not listed separately
Assay: Inhibition of rat serum BuChE using butyrylthiocholine as substrate measured after 20 mins by Ellman's method
Details: not given
`CCNC(=S)Nc1cc(-n2cnc(CN(C)Cc3ccccc3)c2)ncn1` showed an IC50 of 15.2 µM. For `CCNC(=S)Nc1cc(-n2cnc(CN3CCCC3)c2)ncn1`, the IC50 was > 40 µM. For `C/C=C1\[C@H]2C=C(C)C[C@]1(N)c1ccc(=O)[nH]c1C2` [HUPERZINE A], the IC50 was 36.4 µM.

Test system: not listed separately
Assay: Cytotoxicity against human SH-SY5Y cells assessed as reduction in cell viability after 24 hrs in presence of Cu2+ ion by MTT assay
Assay type: toxicity, cell-based
Details: not given
With `CCNC(=S)Nc1cc(-n2cnc(CN3CCCC3)c2)ncn1` the Activity was “Non-Toxic”.

Biological target: T2, Acetylcholinesterase (Rattus norvegicus, UniProt P37136)
T2 sequence (P37136 whole entry): T1 sequence (whole entry)
Assay: Inhibition of rat cortex AChE using acetylthiocholine iodide as substrate measured after 20 mins by Ellman's method
Details: not given
`CCCCNC(=S)Nc1cc(-n2cccn2)ncn1` showed an IC50 of 23.4 µM. With `CCNC(=S)Nc1ncnc(-n2ccnc2)c1C` the IC50 was > 40 µM. For `CCNC(=S)Nc1nc2c(c(-n3ccnc3)n1)CCC2`, the IC50 was > 40 µM. In the case of `CCNC(=S)Nc1cc(-n2cccn2)ncn1`, the IC50 is reported as 8.14 µM. `CCNC(=S)Nc1cc(-n2ccnc2)ncn1` showed an IC50 of 1.59 µM. For `CCNC(=S)Nc1cc(-n2ccnc2)nc(C)n1`, the IC50 was 8.72 µM. With `CCNC(=S)Nc1cc(N2CCN(C)CC2)ncn1` the IC50 was 3.26 µM. In the case of `CCNC(=S)Nc1cc(-n2cnc(CN(C)Cc3ccccc3)c2)ncn1`, the IC50 is reported as 0.181 µM. In the case of `CCNC(=S)Nc1cc(-n2cnc(CN3CCCC3)c2)ncn1`, the IC50 is reported as 0.067 µM. In the case of `C/C=C1\[C@H]2C=C(C)C[C@]1(N)c1ccc(=O)[nH]c1C2` [HUPERZINE A], the IC50 is reported as 0.082 µM.
